Data on 3 compounds can be found in patent US20120130699A1, “Method of molecular design and synthesis of therapeutic and preventive drugs” (priority 2010, published 2012).

The conditions of data set [1]: human, in vivo; cited from earlier work.
The conditions of data set [2]: rat, in vivo.
Data set [3] can be described thus: comparative characteristics: ED50 and therapeutic index. Conditions: LD50 in rats / ED50.
The subject of a further data set is cervical cancer. The following applies: treatment of cervical cancer; cited from earlier work.

On to `CN1CC[C@]23c4c5ccc(O)c4O[C@H]2[C@@H](O)C=C[C@H]3[C@H]1C5` [morphine], for which, in data set [1], the average effectiveness is on record as 75%.

As for `CC(=O)O[C@@]12CO[C@@H]1C[C@H](O)[C@@]1(C)C(=O)[C@H](O)C3=C(C)[C@@H](OC(=O)[C@H](O)[C@@H](NC(=O)OC(C)(C)C)c4ccccc4)C[C@@](O)([C@@H](OC(=O)c4ccccc4)[C@H]21)C3(C)C` [Taxotere], the “Relative Therapeutic Index” value in data set [2] was found to be 1. Besides, in data set [3], the “Therapeutic Index” value amounted to 3.42.

For the compound alpha-interferon, the average effectiveness entry with cervical cancer was “about 15%”.
